This is an account of results in patent US8883856B2, “Compositions and methods for the treatment of inflammatory diseases using topoisomerase inhibitors” (priority 2000, dated 2014).

The subject of assay [1] is neutrophils. In words: Neutrophil superoxide anion generation (cytochrome c reduction). Format: cell-based, human. The following applies: CPPD crystals or fMLP. The procedure: Superoxide anion concentrations were measured using the superoxide dismutase inhibitable reduction of cytochrome c assay. Twenty five mg of crystals or fMLP (final concentration 1 uM with cytochalasin B at 0.5 uM) were placed in 1.5 mL capped Eppendorf tubes and warmed to 37° C. To the tubes were added 0.5 mL of cells at 37° C. and ferricytochrome c (horse heart, type 3) (final concentration 1.2 mg/mL) and the cells were activated by shaking the capped tubes. At appropriate times, tubes were centrifuged at 10,000×g for 10 seconds and the supernatant collected for spectrophotometric assay at 550 nm. Control tubes were set up under the same conditions with the inclusion of superoxide dismutase at 600 units per mL. Plumbagin inhibited the generation of superoxide anions from neutrophils activated by both CPPD crystals or fMLP as shown in FIG. 3.

In assay [2] the test system is neutrophils. Nature of the assay: Neutrophil degranulation (myeloperoxidase release). The format is cell-based, human. The following applies: CPPD crystals and fMLP. The method, then:
Eppendorf tubes containing either 25 mg of CPPD or 1 uM fMLP (with 0.5 uM cytochalasin B) were maintained at 37° C. To the tubes were added 0.5 mL of cells at 37° C. followed by shaking to initiate the reactions. At appropriate times, tubes were centrifuged at 10,000× g for 10 s and 0.4 mL of supernatant was stored at −20° C. for later assay. Myeloperoxidase (MPO) activity was measured by the increase in absorbance at 450 nm that accompanies the oxidation of o-dianisidine. Dianisidine (7.8 mg) was dissolved in 100 mL of 0.1 M citrate buffer, pH 5.5 and to a 1 mL cuvette were added 0.89 mL of the dianisidine solution, followed by […], […] and […]. MPO activity was determined from the change in absorbance (450 nm) per minute, (ΔA450), using the following relationship: Dianisidine oxidation (nmol/min)=50 ΔA450

SMILES strings stand for the structures.

For the compound `CC1=CC(=O)c2c(O)cccc2C1=O` [plumbagin], in the assay on neutrophils [1], the “generation of superoxide anions from activated neutrophils” value was “inhibited”. Further, the “neutrophil degranulation (myeloperoxidase release)” value in the assay on neutrophils [2] was “inhibited”.
